Assays:
PLK1 = biological target: T1, PLK1 (Homo sapiens, UniProt P53350); experiment: In vitro phosphorylation inhibition, PLK1 (ELISA); format: biochemical; conditions: CBP501 0.5, 5, 50 uM, 30° C., compared to cyclin-dependent kinases, PKA and PKC (FIG. 1)
T1 construct: PLK-1: Human full length GST fusion, E. Coli; GST; host or cells: E. coli
Description: (§1) Source of kinases, measurement method, substrate, first antibody, second antibody, reaction buffer, reaction volume, ATP concentration, and reaction time are as follows. ATM and ATR: Full length recombinant human, 293T cells, enzyme linked immunosorbent assay (ELISA), GST-p53 (aal -99), anti-p53-phosphorylated Serl 5, Horse radish peroxidase (HRP)-labeled anti-rabbit IgG, 1×Mg/Mn kinase buffer (20 mM Hepes-KOH (pH7.5), 1 mM DTT, 80 ug/ml BSA, 10 mM MgCl2, 10 mM MnCl2), 50 ul, 100 uM, and 60 min. Chk1, Chk2 and c-Tak1: Full length recombinant human from SF-9 cells for Chk1, Full length recombinant human from E. Coli for Chk2 and Full length recombinant human from SF-9 cells for c-Tak1, respectively, ELISA, GST-Cdc25C (aa167–267), anti-Cdc25C-phosphorylated Ser216, HRP-labelled anti-mouse IgG, 1×Mg kinase buffer (20 mM Hepes-KOH (pH7.5), 1 mM DTT, 80 ug/ml BSA, 10 mM MgCl2), 50 ul, 50 uM, and 60 min. PLK-1: Human full length GST fusion, E. Coli, ELISA, GST fusion protein Y, Anti-phosphorylated Ser/Thr monoclonal, HRP-labelled anti-mousr IgG, 1×Mg kinase buffer, 30 ul, 50 uM, and 60 min. […]
(§2) All incubations were at 30° C. […] The phosphorylated substrate was detected with either ELISA or RIA as described above. […] The quantity of phosphorylated substrate for each kinase reaction without CBP501 was nominated as 100%.

[1] = test system: Candida glabrata (ATCC 36583); experiment: Minimal growth inhibitory concentration by turbidity, Candida glabrata; format: cell-based; conditions: Candida glabrata ATCC 36583, fluid Sabouraud medium, 28 degree, turbidity two days after inoculation
Description: (§3) Candida albicans was obtained from ATCC (ATCC 10231) and cultured in fluid Sabouraud medium at 37 degree. The turbidity was measured one day after the innoculation and treatment with CBP501 at 0.03, 0.1, 0.3, 1, 3, 10, 30, 100 μg/ml. Candida glabrata was obtained from ATCC (ATCC 36583) and cultured in fluid Sabouraud medium at 28 degree. The turbidity was measured two days after the innoculation and treatment with CBP501 at 0.03, 0.1, 0.3, 1, 3, 10, 30, 100 μg/ml. Cryptococcus neoformans was obtained from ATCC (ATCC 24067) and cultured in fluid Sabouraud medium at 37 degree. The turbidity was measured two days after the innoculation and treatment with CBP501 at 0.03, 0.1, 0.3, 1, 3, 10, 30, 100 μg/ml. Trichophyton mentagroohytes was obtained from ATCC (ATCC 9533) and cultured in potato dextrose broth at 28 degree. The turbidity was measured three days after the innoculation and treatment with CBP501 at 0.03, 0.1, 0.3, 1, 3, 10, 30, 100 μg/ml. Minimal growth inhibitory concentrations were determined as the concentration of minimal CBP501 where the turbidity was not increased (Table 2).

ATM = biological target: T2, ATM (Homo sapiens, UniProt Q13315); experiment: In vitro phosphorylation inhibition, ATM (ELISA); format: biochemical; conditions: CBP501 0.5, 5, 50 uM, 30° C., compared to cyclin-dependent kinases, PKA and PKC (FIG. 1)
T2 construct: ATM and ATR: Full length recombinant human, 293T cells; host or cells: 293T cells
Description: as §1, §2

yeast AH109 = experiment: Growth inhibition of yeast AH109 on YAPD plate; format: cell-based, Saccaromices Cerevisie; conditions: 1 hr incubation at 30° in liquid YAPD, then 3 days on YAPD agarose plate (FIG. 2)
Description: Cell culture Saccaromices Cerevisie AH109 was purchased from CLONTECH (Palo Alto, Calif.). YAPD plates were prepared using YPD agar purchased from CLONTECH and adenine purchased from Sigma-Aldrich Co. The cells were cultured at 30 degree.
Logarithmically growing yeast AH109 in liquid medium (YAPD) was diluted to 1 to 10 with warm liquid YAPD medium with or without CBP501 and/or amphotericin B at the indicated doses. After 1 hr incubation at 30° whole solution was poured onto the YAPD agarose plate. The plate was then incubated 3 days and the samples were phtographed (FIG. 2).

Wee1 = biological target: T3, Wee1 (Homo sapiens, UniProt P30291); experiment: In vitro phosphorylation inhibition, Wee1 (ELISA); format: biochemical; conditions: CBP501 0.5, 5, 50 uM, 30° C., compared to cyclin-dependent kinases, PKA and PKC (FIG. 1)
T3 construct: Weel: Human fulllength recombinant with GST fusion, E. Coli; GST; host or cells: E. coli
T3 sequence (P30291 whole entry, the tested form may be a part): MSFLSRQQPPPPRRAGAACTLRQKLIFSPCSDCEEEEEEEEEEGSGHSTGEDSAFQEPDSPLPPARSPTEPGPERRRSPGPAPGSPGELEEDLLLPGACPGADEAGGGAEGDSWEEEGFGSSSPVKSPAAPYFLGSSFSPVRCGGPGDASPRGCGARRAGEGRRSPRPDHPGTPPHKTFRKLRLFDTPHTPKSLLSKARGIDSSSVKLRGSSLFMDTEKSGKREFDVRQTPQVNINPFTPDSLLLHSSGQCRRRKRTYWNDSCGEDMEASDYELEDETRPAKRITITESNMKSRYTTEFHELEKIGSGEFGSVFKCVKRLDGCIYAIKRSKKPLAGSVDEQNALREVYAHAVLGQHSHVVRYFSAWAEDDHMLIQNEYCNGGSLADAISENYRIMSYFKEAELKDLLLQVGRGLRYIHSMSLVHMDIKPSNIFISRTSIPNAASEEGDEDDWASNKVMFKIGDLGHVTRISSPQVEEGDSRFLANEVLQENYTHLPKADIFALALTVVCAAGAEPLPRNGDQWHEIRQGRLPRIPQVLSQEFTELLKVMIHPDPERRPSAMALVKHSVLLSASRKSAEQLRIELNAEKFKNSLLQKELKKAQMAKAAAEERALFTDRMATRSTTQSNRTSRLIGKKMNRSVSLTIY
Description: as §1, §2

[2] = test system: Candida albicans (ATCC 10231); experiment: Minimal growth inhibitory concentration by turbidity, Candida albicans; format: cell-based; conditions: Candida albicans ATCC 10231, fluid Sabouraud medium, 37 degree, turbidity one day after inoculation
Description: as §3

ATR = biological target: T4, ATR (Homo sapiens, UniProt Q13535); experiment: In vitro phosphorylation inhibition, ATR (ELISA); format: biochemical; conditions: CBP501 0.5, 5, 50 uM, 30° C., compared to cyclin-dependent kinases, PKA and PKC (FIG. 1)
T4 construct: ATM and ATR: Full length recombinant human, 293T cells; host or cells: 293T cells
T4 sequence (Q13535 whole entry): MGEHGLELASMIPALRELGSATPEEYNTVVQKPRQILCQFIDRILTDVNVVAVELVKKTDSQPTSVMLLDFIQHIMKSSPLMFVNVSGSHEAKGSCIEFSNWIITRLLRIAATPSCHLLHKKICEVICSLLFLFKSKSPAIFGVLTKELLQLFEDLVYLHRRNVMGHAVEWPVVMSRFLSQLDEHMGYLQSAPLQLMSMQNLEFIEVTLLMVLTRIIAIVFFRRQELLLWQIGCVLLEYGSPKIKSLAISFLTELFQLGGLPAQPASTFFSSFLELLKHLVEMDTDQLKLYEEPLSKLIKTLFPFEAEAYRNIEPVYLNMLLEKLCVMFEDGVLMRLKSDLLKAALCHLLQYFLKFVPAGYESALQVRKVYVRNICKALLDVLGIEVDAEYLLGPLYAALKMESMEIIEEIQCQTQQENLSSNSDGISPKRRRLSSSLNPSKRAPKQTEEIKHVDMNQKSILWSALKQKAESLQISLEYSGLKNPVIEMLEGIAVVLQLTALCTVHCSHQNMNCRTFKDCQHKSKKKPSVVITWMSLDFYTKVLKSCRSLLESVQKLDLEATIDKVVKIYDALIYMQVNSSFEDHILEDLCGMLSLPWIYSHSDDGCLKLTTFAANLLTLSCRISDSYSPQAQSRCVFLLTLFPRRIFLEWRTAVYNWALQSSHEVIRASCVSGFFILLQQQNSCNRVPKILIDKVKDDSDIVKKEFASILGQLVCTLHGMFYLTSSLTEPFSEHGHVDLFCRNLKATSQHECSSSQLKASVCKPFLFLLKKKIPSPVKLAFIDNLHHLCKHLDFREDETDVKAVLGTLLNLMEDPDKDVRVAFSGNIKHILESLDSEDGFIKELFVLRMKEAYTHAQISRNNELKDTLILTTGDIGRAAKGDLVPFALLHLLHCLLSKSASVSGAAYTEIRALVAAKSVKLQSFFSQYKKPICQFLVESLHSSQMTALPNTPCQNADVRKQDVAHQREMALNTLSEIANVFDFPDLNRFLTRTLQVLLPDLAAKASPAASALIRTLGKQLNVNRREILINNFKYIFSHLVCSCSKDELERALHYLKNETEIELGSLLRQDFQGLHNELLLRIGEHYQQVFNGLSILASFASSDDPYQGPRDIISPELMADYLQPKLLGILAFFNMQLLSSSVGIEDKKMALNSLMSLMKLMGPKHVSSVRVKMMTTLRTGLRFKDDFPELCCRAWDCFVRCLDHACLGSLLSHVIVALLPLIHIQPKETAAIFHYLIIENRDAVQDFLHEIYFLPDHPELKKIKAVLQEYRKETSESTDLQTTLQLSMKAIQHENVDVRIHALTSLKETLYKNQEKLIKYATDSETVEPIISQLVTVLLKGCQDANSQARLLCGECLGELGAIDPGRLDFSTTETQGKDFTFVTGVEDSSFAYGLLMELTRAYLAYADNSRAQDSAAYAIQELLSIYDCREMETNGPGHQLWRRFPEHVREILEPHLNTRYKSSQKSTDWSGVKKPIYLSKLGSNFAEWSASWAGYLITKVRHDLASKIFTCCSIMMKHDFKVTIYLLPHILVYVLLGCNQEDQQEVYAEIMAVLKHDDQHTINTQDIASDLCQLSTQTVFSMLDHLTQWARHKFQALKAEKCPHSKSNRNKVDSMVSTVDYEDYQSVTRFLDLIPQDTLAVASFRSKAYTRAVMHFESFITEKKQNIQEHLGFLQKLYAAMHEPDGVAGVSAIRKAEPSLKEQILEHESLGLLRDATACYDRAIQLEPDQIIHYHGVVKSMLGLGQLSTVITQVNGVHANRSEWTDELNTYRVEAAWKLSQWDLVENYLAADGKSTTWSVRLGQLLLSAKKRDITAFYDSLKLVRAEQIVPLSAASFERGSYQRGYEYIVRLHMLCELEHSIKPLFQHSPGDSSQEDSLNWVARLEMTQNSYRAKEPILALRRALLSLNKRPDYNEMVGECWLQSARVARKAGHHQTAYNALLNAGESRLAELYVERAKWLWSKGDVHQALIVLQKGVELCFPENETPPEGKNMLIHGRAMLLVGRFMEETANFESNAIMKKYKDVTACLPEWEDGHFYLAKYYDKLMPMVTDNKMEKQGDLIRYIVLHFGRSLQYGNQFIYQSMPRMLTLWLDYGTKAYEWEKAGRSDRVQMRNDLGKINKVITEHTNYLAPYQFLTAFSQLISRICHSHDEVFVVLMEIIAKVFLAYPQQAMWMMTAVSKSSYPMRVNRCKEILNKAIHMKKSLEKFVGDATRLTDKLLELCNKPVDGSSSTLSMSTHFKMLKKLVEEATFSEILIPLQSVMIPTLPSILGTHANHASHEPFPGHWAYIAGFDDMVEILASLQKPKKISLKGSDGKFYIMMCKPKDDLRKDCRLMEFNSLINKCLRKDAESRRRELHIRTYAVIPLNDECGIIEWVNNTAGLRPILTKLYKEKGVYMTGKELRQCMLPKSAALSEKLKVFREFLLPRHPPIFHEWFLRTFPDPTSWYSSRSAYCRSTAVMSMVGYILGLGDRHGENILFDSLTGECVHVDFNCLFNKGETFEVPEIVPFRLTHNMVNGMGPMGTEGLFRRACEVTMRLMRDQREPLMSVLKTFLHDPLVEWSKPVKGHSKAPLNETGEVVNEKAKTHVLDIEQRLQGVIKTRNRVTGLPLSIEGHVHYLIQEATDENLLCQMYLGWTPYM
T4 sequence (Q8WXE1 whole entry partner): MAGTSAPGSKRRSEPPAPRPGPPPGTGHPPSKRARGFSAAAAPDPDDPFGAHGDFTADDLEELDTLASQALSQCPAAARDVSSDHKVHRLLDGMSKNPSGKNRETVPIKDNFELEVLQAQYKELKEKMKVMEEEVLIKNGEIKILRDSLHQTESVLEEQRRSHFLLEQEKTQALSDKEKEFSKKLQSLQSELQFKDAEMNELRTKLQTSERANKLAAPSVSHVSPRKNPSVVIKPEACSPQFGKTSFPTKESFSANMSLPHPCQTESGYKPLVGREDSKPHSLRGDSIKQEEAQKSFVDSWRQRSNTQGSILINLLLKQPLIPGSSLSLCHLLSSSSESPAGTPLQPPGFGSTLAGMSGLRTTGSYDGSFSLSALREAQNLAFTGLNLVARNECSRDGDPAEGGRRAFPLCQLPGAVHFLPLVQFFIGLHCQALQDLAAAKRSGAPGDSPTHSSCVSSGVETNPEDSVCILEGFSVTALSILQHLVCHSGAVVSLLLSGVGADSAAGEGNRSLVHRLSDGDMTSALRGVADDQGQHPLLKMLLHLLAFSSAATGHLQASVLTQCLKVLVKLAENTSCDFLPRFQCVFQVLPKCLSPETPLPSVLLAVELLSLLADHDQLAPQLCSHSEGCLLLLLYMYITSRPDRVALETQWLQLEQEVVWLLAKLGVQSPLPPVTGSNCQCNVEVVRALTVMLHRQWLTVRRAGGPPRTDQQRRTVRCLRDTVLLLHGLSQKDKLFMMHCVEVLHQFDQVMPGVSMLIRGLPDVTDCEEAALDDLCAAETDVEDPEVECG
Description: as §1, §2

CHK2 = biological target: T5, CHK2 (Homo sapiens, UniProt O96017); experiment: In vitro phosphorylation inhibition, CHK2 (ELISA); format: biochemical; conditions: CBP501 0.5, 5, 50 uM, 30° C., compared to cyclin-dependent kinases, PKA and PKC (FIG. 1)
T5 construct: Full length recombinant human from E. Coli for Chk2; host or cells: E. coli
T5 sequence (O96017 whole entry): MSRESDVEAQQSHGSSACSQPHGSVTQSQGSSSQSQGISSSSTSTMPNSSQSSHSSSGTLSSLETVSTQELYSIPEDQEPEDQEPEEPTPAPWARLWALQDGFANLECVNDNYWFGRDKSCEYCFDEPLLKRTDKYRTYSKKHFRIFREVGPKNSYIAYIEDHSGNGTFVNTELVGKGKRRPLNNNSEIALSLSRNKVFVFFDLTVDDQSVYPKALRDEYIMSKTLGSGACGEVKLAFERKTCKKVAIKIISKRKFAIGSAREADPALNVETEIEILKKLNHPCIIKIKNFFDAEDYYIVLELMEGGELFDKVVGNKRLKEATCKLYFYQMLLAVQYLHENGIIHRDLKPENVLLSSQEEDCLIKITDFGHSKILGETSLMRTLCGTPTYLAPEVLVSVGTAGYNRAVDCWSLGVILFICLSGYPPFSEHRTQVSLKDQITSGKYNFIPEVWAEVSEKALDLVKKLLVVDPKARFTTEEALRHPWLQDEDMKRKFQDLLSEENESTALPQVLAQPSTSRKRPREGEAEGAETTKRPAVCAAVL
Description: as §1, §2

[3] = test system: Trichophyton mentagroohytes (ATCC 9533); experiment: Minimal growth inhibitory concentration by turbidity, Trichophyton mentagroohytes; format: cell-based; conditions: Trichophyton mentagroohytes ATCC 9533, potato dextrose broth, 28 degree, turbidity three days after inoculation
Description: as §3

[4] = test system: Cryptococcus neoformans (ATCC 24067); experiment: Minimal growth inhibitory concentration by turbidity, Cryptococcus neoformans; format: cell-based; conditions: Cryptococcus neoformans ATCC 24067, fluid Sabouraud medium, 37 degree, turbidity two days after inoculation
Description: as §3

CHK1 = biological target: T6, CHK1 (Homo sapiens, UniProt O14757); experiment: In vitro phosphorylation inhibition, CHK1 (ELISA); format: biochemical; conditions: CBP501 0.5, 5, 50 uM, 30° C., compared to cyclin-dependent kinases, PKA and PKC (FIG. 1)
T6 construct: Full length recombinant human from SF-9 cells for Chk1; host or cells: SF-9 cells
T6 sequence (O14757 1-476): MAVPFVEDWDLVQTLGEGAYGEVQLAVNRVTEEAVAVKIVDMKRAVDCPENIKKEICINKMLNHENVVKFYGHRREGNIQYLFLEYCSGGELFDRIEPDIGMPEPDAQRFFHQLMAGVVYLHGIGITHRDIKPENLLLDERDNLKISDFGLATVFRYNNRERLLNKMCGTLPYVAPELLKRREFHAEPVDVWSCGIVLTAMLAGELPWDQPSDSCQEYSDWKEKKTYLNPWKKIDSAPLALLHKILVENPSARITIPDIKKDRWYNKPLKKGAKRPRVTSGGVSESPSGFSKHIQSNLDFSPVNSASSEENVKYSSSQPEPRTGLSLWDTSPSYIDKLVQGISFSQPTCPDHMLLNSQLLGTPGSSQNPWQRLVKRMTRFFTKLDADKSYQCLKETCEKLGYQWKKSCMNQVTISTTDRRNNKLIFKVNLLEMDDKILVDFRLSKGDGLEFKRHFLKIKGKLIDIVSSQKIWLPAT
Description: as §1, §2

Substance: (d-Bpa)(d-Ser)(d-Trp)(d-Ser) (d-Phe2,3,4,5,6-F)(d-Cha)(d-Arg)(d-Arg)(d-Arg)(d-Gln)(d-Arg)(d-Arg) [CBP501]
- inhibition of kinase activity (phosphorylation of substrate) (PLK1): strongly inhibited
- MIC (minimul inhibitory concentration) [1]: 30 µg/mL
- inhibition of kinase activity (phosphorylation of substrate) (ATM): strongly inhibited
- growth of yeast AH109 on YAPD plate (yeast AH109): growth inhibition
- inhibition of kinase activity (phosphorylation of substrate) (Wee1): strongly inhibited
- MIC (minimul inhibitory concentration) [2]: 100 µg/mL
- inhibition of kinase activity (phosphorylation of substrate) (ATR): strongly inhibited
- inhibition of kinase activity (phosphorylation of substrate) (CHK2): strongly inhibited
- MIC (minimul inhibitory concentration) [3]: 100 µg/mL
- MIC (minimul inhibitory concentration) [4]: 1 µg/mL
- inhibition of kinase activity (phosphorylation of substrate) (CHK1): strongly inhibited

— patent US7125842B2, “Anti-fungal compounds and methods of use” (CanBas Co. Ltd., priority 2003, dated 2006)
